Series [1] concerns Canis familiaris. Briefly: Bronchodilatory activity in iv dosed mongrel dog assessed as inhibition of histamine-induced bronchospasm administered 1 min prior to histamine challenge relative to l-isoproterenol. Type of series: functional, Canis lupus familiaris.
Series [2] concerns Canis familiaris. Briefly: Increase in heart rate in iv dosed anesthetized mongrel dog. The series is classed as organism-based, Canis lupus familiaris. The conditions noted are these: in vivo.
The species entered for series [3] is Canis familiaris. Briefly: Separation ratio of ED25 for increase in heart rate in mongrel dog to ED50 for inhibition of bronchoconstriction in mongrel dog. The arrangement: species or system Canis lupus familiaris.
Series [4] has as its system Canis familiaris. Briefly: Increase in heart rate in iv dosed anesthetized mongrel dog relative to l-isoproterenol. The series is classed as organism-based, Canis lupus familiaris. The conditions noted are these: in vivo.
Series [5] relates to Canis familiaris. In words: Bronchodilatory activity in iv dosed mongrel dog assessed as inhibition of histamine-induced bronchospasm administered 1 min prior to histamine challenge. The series is classed as functional. As to conditions: Canis lupus familiaris.

SMILES strings stand for the structures.

In the case of `CC[C@@H](NC(C)C)[C@@H](O)c1ccc(O)c2[nH]c(=O)ccc12`, in the series with Canis familiaris [1], the “Ratio ED50” value stood at 18500. Besides, in the series on Canis familiaris [2], the ED14.5 is 3000 µg/kg.

As to `CC[C@@H](NC(C)C)[C@H](O)c1ccc(O)c2[nH]c(=O)ccc12`, the results for the Ratio in the series filed under Canis familiaris [3] and in the series on Canis familiaris [4] were 1.84 and 7560, respectively. The “Ratio ED50” value in the series with Canis familiaris [1] is 4110.

Regarding `CC[C@H](NC(C)C)[C@@H](O)c1ccc(O)c2[nH]c(=O)ccc12`, the Ratio in the series filed under Canis familiaris [3] is recorded as 16.9; in the series with Canis familiaris [4], 9550. The “Ratio ED50” value with Canis familiaris [1] was found to be 566.

For `CCC(NC(C)C)C(O)c1ccc(O)c2[nH]c(=O)ccc12` (racemic; erythro) [PROCATEROL], the Ratio in the series listed under Canis familiaris [3] worked out at 24.9; in the series on Canis familiaris [4] it was 50.5. For the same molecule, the “Ratio ED50” value with Canis familiaris [1] is on record as 2.03.

Turning to `CCC(NC(C)C)C(O)c1ccc(O)c2[nH]c(=O)ccc12` (racemic; threo) [PROCATEROL], the “Ratio ED50” value in the series on Canis familiaris [1] was 148. For the same molecule, in the series on Canis familiaris [2], the ED19.5 was found to be 300 µg/kg.

Consider `CCC(NC(C)C)C(O)c1ccc(O)c2[nH]c(=O)ccc12` (stereo in doubt) [PROCATEROL], for which the values for the Ratio in the series listed under Canis familiaris [3] and with Canis familiaris [4] were 23.5 and 33.2, respectively. Besides, in the series on Canis familiaris [1], the “Ratio ED50” value stood at 1.41.

The ED50 is the midpoint of the dose-response relation. Take `CC(C)NCC(O)c1ccc(O)c(O)c1` (stereo not drawn) [ISOPROTERENOL]: in the series with Canis familiaris [2], the ED25 amounted to 0.019 µg/kg. Besides, the ED50 with Canis familiaris [5] is 0.069 µg/kg.
